Reference: patent US20230139171A1 (SITA Information Networking Computing UK Limited, priority 2019, published 2023)

Legend:
[1] = molecular target: T1, human TLR8 (Homo sapiens, UniProt Q9NR97); test: TLR8 inhibition reporter assay (HEK-Blue cells, SEAP reporter, R848 stimulation); type: cell-based; details: HEK-Blue cells overexpressing human TLR8, SEAP reporter, R848 15.9 μM; read-out: TLR8 IC50
T1 construct: host or cells: HEK-Blue cells
T1 sequence (Q9NR97 27-1041): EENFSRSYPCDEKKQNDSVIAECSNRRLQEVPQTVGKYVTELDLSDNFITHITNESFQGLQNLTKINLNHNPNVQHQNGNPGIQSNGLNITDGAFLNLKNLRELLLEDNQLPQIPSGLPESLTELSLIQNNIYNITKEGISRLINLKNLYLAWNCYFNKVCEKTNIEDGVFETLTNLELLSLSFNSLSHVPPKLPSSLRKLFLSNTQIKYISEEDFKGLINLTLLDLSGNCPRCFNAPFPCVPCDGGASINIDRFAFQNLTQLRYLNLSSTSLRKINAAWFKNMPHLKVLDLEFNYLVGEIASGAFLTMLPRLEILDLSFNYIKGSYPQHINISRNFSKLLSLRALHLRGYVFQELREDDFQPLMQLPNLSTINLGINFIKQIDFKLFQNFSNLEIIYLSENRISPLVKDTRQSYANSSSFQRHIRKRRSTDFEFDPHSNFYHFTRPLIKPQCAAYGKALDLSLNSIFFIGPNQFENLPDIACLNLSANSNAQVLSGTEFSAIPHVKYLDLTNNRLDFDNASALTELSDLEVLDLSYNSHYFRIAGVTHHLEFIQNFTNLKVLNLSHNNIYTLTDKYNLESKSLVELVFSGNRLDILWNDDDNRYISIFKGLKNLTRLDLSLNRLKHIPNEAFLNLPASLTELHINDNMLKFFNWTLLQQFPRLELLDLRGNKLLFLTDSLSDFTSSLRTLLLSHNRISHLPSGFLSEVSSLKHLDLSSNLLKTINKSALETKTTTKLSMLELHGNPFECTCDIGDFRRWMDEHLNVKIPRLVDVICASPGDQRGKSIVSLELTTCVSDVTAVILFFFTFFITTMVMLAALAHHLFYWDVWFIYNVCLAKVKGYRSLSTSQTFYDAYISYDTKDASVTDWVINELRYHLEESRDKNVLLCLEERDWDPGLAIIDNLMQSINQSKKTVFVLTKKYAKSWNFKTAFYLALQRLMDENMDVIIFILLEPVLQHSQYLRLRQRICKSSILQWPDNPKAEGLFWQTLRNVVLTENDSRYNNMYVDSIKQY
Procedure: (§1) TLR7/8/9 Inhibition Reporter Assays
(§2) HEK-Blue™-cells (Invivogen) overexpressing human TLR7, TLR8 or TLR9 receptors were used for screening inhibitors of these receptors using an inducible SEAP (secreted embryonic alkaline phosphatase) reporter gene under the control of the IFN-β minimal promoter fused to five NF-κB and AP-1-binding sites. Briefly, cells are seeded into Greiner 384 well plates (15000 cells per well for TLR7, 20,000 for TLR8 and 25,000 for TLR9) and then treated with test compounds in DMSO to yield a final dose response concentration range of 0.05 nM-50 μM. After a 30 minute compound pre-treatment at room temperature, the cells are then stimulated with a TLR7 ligand (gardiquimod at a final concentration of 7.5 μM), TLR8 ligand (R848 at a final concentration of 15.9 μM) or TLR9 ligand (ODN2006 at a final concentration of 5 nM) to activate NF-κB and AP-1 which induce the production of SEAP. After a 22 hour incubation at 37° C., 5% CO2, SEAP levels are determined with the addition of HEK-Blue™ Detection reagent (Invivogen), a cell culture medium that allows for detection of SEAP, according to manufacturer's specifications. The percent inhibition is determined as the % reduction in the HEK-Blue signal present in wells treated with agonist plus DMSO alone compared to wells treated with a known inhibitor.

[2] = molecular target: T2, human TLR7 (Homo sapiens, UniProt Q9NYK1); test: TLR7 inhibition reporter assay (HEK-Blue cells, SEAP reporter, gardiquimod stimulation); type: cell-based; details: HEK-Blue cells overexpressing human TLR7, SEAP reporter, gardiquimod 7.5 μM; read-out: TLR7 IC50
T2 construct: host or cells: HEK-Blue cells
T2 sequence (Q9NYK1 27-1049): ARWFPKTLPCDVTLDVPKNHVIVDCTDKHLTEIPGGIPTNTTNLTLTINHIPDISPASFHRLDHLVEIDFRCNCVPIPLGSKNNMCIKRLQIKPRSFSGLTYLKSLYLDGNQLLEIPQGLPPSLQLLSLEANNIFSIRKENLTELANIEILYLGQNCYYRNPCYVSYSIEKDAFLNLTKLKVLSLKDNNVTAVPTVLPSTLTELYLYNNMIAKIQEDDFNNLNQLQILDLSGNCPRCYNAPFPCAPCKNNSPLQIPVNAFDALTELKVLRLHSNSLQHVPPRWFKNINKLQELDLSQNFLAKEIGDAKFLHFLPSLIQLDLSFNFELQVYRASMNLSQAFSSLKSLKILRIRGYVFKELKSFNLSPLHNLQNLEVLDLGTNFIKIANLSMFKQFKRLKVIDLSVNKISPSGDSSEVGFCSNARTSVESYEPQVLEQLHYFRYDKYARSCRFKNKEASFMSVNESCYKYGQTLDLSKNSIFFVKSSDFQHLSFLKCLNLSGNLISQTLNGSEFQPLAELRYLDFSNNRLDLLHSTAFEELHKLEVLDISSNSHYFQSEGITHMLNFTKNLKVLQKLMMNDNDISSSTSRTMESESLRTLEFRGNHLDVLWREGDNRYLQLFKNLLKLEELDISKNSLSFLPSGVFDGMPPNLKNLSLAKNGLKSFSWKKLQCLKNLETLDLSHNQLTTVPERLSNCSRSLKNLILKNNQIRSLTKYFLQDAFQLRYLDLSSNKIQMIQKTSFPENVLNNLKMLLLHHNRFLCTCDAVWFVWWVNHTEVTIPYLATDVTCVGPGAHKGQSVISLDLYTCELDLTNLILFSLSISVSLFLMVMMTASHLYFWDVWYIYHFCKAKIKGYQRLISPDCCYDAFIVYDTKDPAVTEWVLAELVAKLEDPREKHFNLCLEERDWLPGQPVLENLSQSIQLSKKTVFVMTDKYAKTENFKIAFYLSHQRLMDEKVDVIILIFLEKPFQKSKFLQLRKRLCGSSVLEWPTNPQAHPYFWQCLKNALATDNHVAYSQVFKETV
Procedure: as §1, §2

SMILES | IC50 [1] | IC50 [2]
Cc1c(-c2[nH]c3sc(N4CCN(CC(N)=O)CC4)nc3c2C(C)C)cn2ncnc2c1C [Example 285, 2-(4-(5-(7,8-dimethyl-[1,2,4]triazolo[1,5-a]pyridin-6-yl)-6-isopropyl-4H-pyrrolo[3,2-d]thiazol-2-yl)piperazin-1-yl)acetamide] | 2.71 nM | 7.7 nM
Cc1c(-c2[nH]c3sc(N4CCN(C5COC5)CC4)nc3c2C(C)C)cn2ncnc2c1C [Example 286, 5-(7,8-dimethyl-[1,2,4]triazolo[1,5-a]pyridin-6-yl)-6-isopropyl-2-(4-(oxetan-3-yl)piperazin-1-yl)-4H-pyrrolo[3,2-d]thiazole] | 14.6 nM | 25.6 nM
Cc1c(-c2[nH]c3sc(N4CC5(C4)CN(C4COC4)C5)nc3c2C(C)C)cn2ncnc2c1C [Example 302, 5-(7,8-dimethyl-[1,2,4]triazolo[1,5-a]pyridin-6-yl)-6-isopropyl-2-(6-(oxetan-3-yl)-2,6-diazaspiro[3.3]heptan-2-yl)-4H-pyrrolo[3,2-d]thiazole] | 14.2 nM | 9.44 nM
Cc1c(-c2[nH]c3sc(N4CC5(CN(CCS(C)(=O)=O)C5)C4)nc3c2C(C)C)cn(C)c(=O)c1C [Example 305, 5-(6-isopropyl-2-(6-(2-(methylsulfonyl)ethyl)-2,6-diazaspiro[3.3]heptan-2-yl)-4H-pyrrolo[3,2-d]thiazol-5-yl)-1,3,4-trimethylpyridin-2(1H)-one] | 70 nM | 311 nM
Cc1c(-c2[nH]c3sc(N4CC5(C4)CN(C4COC4)C5)nc3c2C(C)C)cn(C)c(=O)c1C [Example 306, 5-(6-isopropyl-2-(6-(oxetan-3-yl)-2,6-diazaspiro[3.3]heptan-2-yl)-4H-pyrrolo[3,2-d]thiazol-5-yl)-1,3,4-trimethylpyridin-2(1H)-one] | 124 nM | 148 nM
Cc1c(-c2[nH]c3sc(N4CC5(CN(CC6CCOCC6)C5)C4)nc3c2C(C)C)cn(C)c(=O)c1C [Example 307, 5-(6-isopropyl-2-(6-((tetrahydro-2H-pyran-4-yl)methyl)-2,6-diazaspiro[3.3]heptan-2-yl)-4H-pyrrolo[3,2-d]thiazol-5-yl)-1,3,4-trimethylpyridin-2(1H)-one] | 9.33 nM | 118 nM
Cc1c(-c2[nH]c3sc(N4CCN(CC(=O)N(C)C)C[C@H]4C)nc3c2C(C)C)cn2ncnc2c1C [Example 312, (R)-2-(4-(5-(7,8-dimethyl-[1,2,4]triazolo[1,5-a]pyridin-6-yl)-6-isopropyl-4H-pyrrolo[3,2-d]thiazol-2-yl)-3-methylpiperazin-1-yl)-N,N-dimethylacetamide] | 17.8 nM | 5.42 nM
Cc1c(-c2[nH]c3sc(N4CCN(CC(N)=O)C[C@H]4C)nc3c2C(C)C)cn2ncnc2c1C [Example 313, (R)-2-(4-(5-(7,8-dimethyl-[1,2,4]triazolo[1,5-a]pyridin-6-yl)-6-isopropyl-4H-pyrrolo[3,2-d]thiazol-2-yl)-3-methylpiperazin-1-yl)acetamide] | 1.72 nM | 3.71 nM
Cc1c(-c2[nH]c3sc(N4CCN(CCS(C)(=O)=O)C[C@H]4C)nc3c2C(C)C)cn2ncnc2c1C [Example 314, (R)-5-(7,8-dimethyl-[1,2,4]triazolo[1,5-a]pyridin-6-yl)-6-isopropyl-2-(2-methyl-4-(2-(methylsulfonyl)ethyl)piperazin-1-yl)-4H-pyrrolo[3,2-d] thiazole] | 18.5 nM | 13.9 nM
CNC(=O)CN1CCN(c2nc3c(C(C)C)c(-c4cn5ncnc5c(C)c4C)[nH]c3s2)[C@H](C)C1 [Example 315, (R)-2-(4-(5-(7,8-dimethyl-[1,2,4]triazolo[1,5-a]pyridin-6-yl)-6-isopropyl-4H-pyrrolo[3,2-d]thiazol-2-yl)-3-methylpiperazin-1-yl)-N-methylacetamide] | 20.2 nM | 5.22 nM
Cc1c(-c2[nH]c3sc(N4CCN(C5COC5)C[C@H]4C)nc3c2C(C)C)cn2ncnc2c1C [Example 316, (R)-5-(7,8-dimethyl-[1,2,4]triazolo[1,5-a]pyridin-6-yl)-6-isopropyl-2-(2-methyl-4-(oxetan-3-yl)piperazin-1-yl)-4H-pyrrolo[3,2-d]thiazole] | 52.4 nM | 12 nM
Cc1c(-c2[nH]c3sc(N4C[C@@H](C)N(CC(=O)N(C)C)C[C@@H]4C)nc3c2C(C)C)cn2ncnc2c1C [Example 335, 2-((2R,5S)-4-(5-(7,8-dimethyl-[1,2,4]triazolo[1,5-a]pyridin-6-yl)-6-isopropyl-4H-pyrrolo[3,2-d]thiazol-2-yl)-2,5-dimethylpiperazin-1-yl)-N,N-dimethylacetamide] | 11.1 nM | 15.5 nM
CNC(=O)CN1CCN(c2nc3c(C(C)C)c(-c4cn5ncnc5c(C)c4C)[nH]c3s2)[C@@H](C)C1 [Example 342, (S)-2-(4-(5-(7,8-dimethyl-[1,2,4]triazolo[1,5-a]pyridin-6-yl)-6-isopropyl-4H-pyrrolo[3,2-d]thiazol-2-yl)-3-methylpiperazin-1-yl)-N-methylacetamide] | 12.6 nM | 19.6 nM
Cc1c(-c2[nH]c3sc(N4CCN(CC(=O)N(C)C)C[C@@H]4C)nc3c2C(C)C)cn2ncnc2c1C [Example 343, (S)-2-(4-(5-(7,8-dimethyl-[1,2,4]triazolo[1,5-a]pyridin-6-yl)-6-isopropyl-4H-pyrrolo[3,2-d]thiazol-2-yl)-3-methylpiperazin-1-yl)-N,N-dimethylacetamide] | 3.3 nM | 24.1 nM
Cc1c(-c2[nH]c3sc(N4CCN(CCS(C)(=O)=O)C[C@@H]4C)nc3c2C(C)C)cn2ncnc2c1C [Example 344, (S)-5-(7,8-dimethyl-[1,2,4]triazolo[1,5-a]pyridin-6-yl)-6-isopropyl-2-(2-methyl-4-(2-(methylsulfonyl)ethyl)piperazin-1-yl)-4H-pyrrolo[3,2-d]thiazole] | 12.7 nM | 39 nM
